Test results from patent US11040028B2, “Penicinotam derivative, preparation method and use thereof” (OCEAN UNIVERSITY OF CHINA, priority 2017, dated 2021).

What was measured:
Assay type in all cases: cell-based
[1] = system: human embryonic lung fibroblast IMR-90; experiment: Anti-fibrosis activity test: inhibition of proliferation of human embryonic lung fibroblast IMR-90 (CCK-8)
Method in brief: (§1)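 A CCK-8 proliferation assay was run: cells at 2×10^4 cells/mL, adherent for 24 h, then incubated 48 h at 37° C with compound dilutions. A450 was recorded 2 h after CCK-8 addition and converted to percent inhibition versus blank for IC50 determination.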

BHK-21 cells = experiment: Anti-fibrosis activity test: inhibition of BHK-21 cell proliferation (CCK-8); settings: Mesocricetus auratus, BHK-21, 48 h
Method in brief: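 Each concentration was tested in triplicate on adhered BHK-21 cells for 48 h, with pirfenidone as reference. A 2 h CCK-8 incubation preceded absorbance reading at 450 nm, and IC50 was obtained from percent inhibition versus blank.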

[2] = system: human hepatic stellate cells LX-2; experiment: Anti-fibrosis activity test: inhibition of proliferation of human hepatic stellate cells LX-2 (CCK-8); settings: Homo sapiens, 48 h
Method in brief: as §1

[3] = system: mouse macrophages (RAW264.7); experiment: Lipopolysaccharide-induced NO secretion in macrophages (Griess); settings: Mus musculus, RAW264.7, 24 h, RAW264.7, LPS 1 μg/ml, a/b isomers given as first/second symbol, read-out: IC50 (μM), inhibition of lipopolysaccharide-induced NO secretion in macrophages
Description: The effects of the compounds of the present application on the lipopolysaccharide-induced NO secretion in macrophage was tested Principle: Anti-inflammatory drug activity screening is to detect the inhibitory effect of compounds on NO production in the mouse macrophages (RAW264.7). When immune cells are stimulated by microbial endotoxin, inflammatory mediators, etc., a large amount of induced NO synthase (iNOS) is produced, and thus NO is generated for immune response. Accordingly, the inhibition of NO production can serve as a direct indicator of the anti-inflammatory activity of the compound. The activity of the compound to inhibit NO production at the cellular level is directly evaluated in the abovementioned test model, thereby reflecting the anti-inflammatory activity of the compound. In this experiment, the content of NO in the medium was detected by Gris kit (Molecular probes, G-7921). Macrophages (Raw264.7) were cultured in DMEM medium containing 10% fetal bovine serum, with the cell concentration adjusted. The cells were seeded in 24-well cell culture plates, cultured in an incubator, and the test samples in different concentrations were added every other day. The blank medium was used as a blank control, and commercially available indomethacin and resveratrol were employed as positive controls. After the addition of lipopolysaccharide (LPS, 1 μg/ml), incubation was performed for 24 hours. Then the supernatant culture solution was taken, to […] reagent was added, and the absorbance value was measured by a microplate reader at 548 nm. Inhibition rate=([…])×100%.

[4] = system: human dermal fibroblasts CCC-ESF-1; experiment: Anti-fibrosis activity test: inhibition of proliferation of human dermal fibroblasts CCC-ESF-1 (CCK-8); settings: Fibroblast
Method in brief: as §1

[5] = system: cardiac fibroblast RAT-iCell-C002; experiment: Anti-fibrosis activity test: inhibition of proliferation of cardiac fibroblast RAT-iCell-C002 (CCK-8); settings: Cardiac fibroblast, 48 h
Method in brief: as §1

[6] = system: human lung fibroblasts HFL1; experiment: Anti-fibrosis activity test: inhibition of proliferation of human lung fibroblasts HFL1 (CCK-8); settings: Homo sapiens, HFL1, 48 h
Method in brief: as §1

[7] = system: human fibrosarcoma cells HT-1080; experiment: Anti-fibrosis activity test: inhibition of proliferation of human fibrosarcoma cells HT-1080 (CCK-8); settings: Homo sapiens, HT-1080, 48 h
Method in brief: as §1

[8] = human embryonic lung fibroblast IMR-90, CCK-8, 48 hours
[9] = CCK-8, 48 hours after administration
[10] = human hepatic stellate cells LX-2, CCK-8, 48 hours
[11] = human dermal fibroblasts CCC-ESF-1, CCK-8, 48 hours
[12] = cardiac fibroblast RAT-iCell-C002, CCK-8, 48 hours
[13] = human lung fibroblasts HFL1, CCK-8, 48 hours
[14] = human fibrosarcoma cells HT-1080, CCK-8, 48 hours
[15] = Homo sapiens, IMR-90 cells, 48 h, CCK-8
[16] = Homo sapiens, CCC-ESF-1 cells, 48 h, CCK-8

Row | Structure (SMILES) | IC50 [3] | IC50 [7, 14] | IC50 ([7]; HT-1080 cells, 48 h, CCK-8) | IC50 [1, 8] | IC50 (BHK-21 cells; [9]) | IC50 [2, 10] | IC50 [4, 11] | IC50 [5, 12] | IC50 [6, 13] | IC50 [1, 15] | IC50 (BHK-21 cells; 48 h, CCK-8) | IC50 ([2]; LX-2, 48 h, LX-2 cells, CCK-8) | IC50 [4, 16] | IC50 ([5]; RAT-iCell-C002 cells, CCK-8) | IC50 ([6]; HFL1 cells, 48 h, CCK-8)
1 | O=C1c2c([nH]c3cc(N4CCNCC4)c(OC(F)(F)F)cc3c2=O)-c2cccn21 [Compound 409a, 6-(Piperazin-1-yl)-7-(trifluoromethoxy)-9H-pyrrolizino[1,2-b]quinoline-9,10(4H)-dione] | 1 to 10 µM | 0.05 to 5 mM | – | 0.05 to 5 mM | 0.05 to 5 mM | 0.05 to 5 mM | 0.05 to 5 mM | 0.05 to 5 mM | 0.05 to 5 mM | – | – | – | – | – | –
2 | CCOCCCn1c2c(c(=O)c3ccccc31)-c1cccn1C2=O [Compound 791a, 6-(3-Ethoxypropyl)-5H-pyrrolizino[2,1-b]quinoline-5,11(6H)-dione] | 1 to 10 µM | – | 0.05 to 5 mM | – | – | – | – | – | – | 0.05 to 5 mM | < 0.05 mM | 0.05 to 5 mM | 0.05 to 5 mM | 0.05 to 5 mM | 0.05 to 5 mM
3 | O=C1c2c(c(=O)c3ccccc3n2CCCCN2CCNCC2)-c2cccn21 [Compound 794a, 6-(4-(Piperazin-1-yl)butyl)-5H-pyrrolizino[2,1-b]quinoline-5,11(6H)-dione] | 1 to 10 µM | – | 0.05 to 5 mM | – | – | – | – | – | – | 0.05 to 5 mM | 0.05 to 5 mM | 0.05 to 5 mM | 0.05 to 5 mM | 0.05 to 5 mM | 0.05 to 5 mM
4 | O=C1c2nc3ccccc3c(OCCN3CCNCC3)c2-c2cccn21 [Compound 792b, 11-(2-(piperazin-1-yl)ethoxy)-5H-pyrrolizino[2,1-b]quinolin-5-one] | 0.1 to 1 µM | – | 0.05 to 5 mM | – | – | – | – | – | – | 0.05 to 5 mM | 0.05 to 5 mM | 0.05 to 5 mM | < 0.05 mM | 0.05 to 5 mM | 0.05 to 5 mM
5 | O=C1c2c(n(Cc3cccc(Cl)c3)c3c(C(F)(F)F)cccc3c2=O)-c2cccn21 [Compound 455a, 4-(3-Chlorobenzyl)-5-(trifluoromethyl)-9H-pyrrolizino[1,2-b]quinoline-9,10(4H)-dione] | 1 to 10 µM | 0.05 to 5 mM | – | 5 to 20 mM | 0.05 to 5 mM | 0.05 to 5 mM | 0.05 to 5 mM | 0.05 to 5 mM | 5 to 20 mM | – | – | – | – | – | –
6 | O=C1c2c(n(Cc3ccccc3Cl)c3cccc(C(F)(F)F)c3c2=O)-c2cccn21 [Compound 472a, 4-(2-Chlorobenzyl)-8-(trifluoromethyl)-9H-pyrrolizino[1,2-b]quinoline-9,10(4H)-dione] | 1 to 10 µM | 0.05 to 5 mM | – | 0.05 to 5 mM | < 0.05 mM | 0.05 to 5 mM | 0.05 to 5 mM | 0.05 to 5 mM | 0.05 to 5 mM | – | – | – | – | – | –
7 | O=C1c2c(nc3cc(N4CCNCC4)c(F)cc3c2OCCO)-c2cccn21 [Compound 348b, 7-fluoro-9-(2-hydroxyethoxy)-6-(piperazin-1-yl)-10H-pyrrolizino[1,2-b]quinolin-10-one] | 1 to 10 µM | 0.05 to 5 mM | – | 0.05 to 5 mM | 0.05 to 5 mM | < 0.05 mM | 0.05 to 5 mM | 0.05 to 5 mM | 0.05 to 5 mM | – | – | – | – | – | –
8 | CCCOCCn1c2c(c(=O)c3ccccc31)-c1cccn1C2=O [Compound 790a, 6-(2-Propoxyethyl)-5H-pyrrolizino[2,1-b]quinoline-5,11(6H)-dione] | 1 to 10 µM | – | 0.05 to 5 mM | – | – | – | – | – | – | 0.05 to 5 mM | 0.05 to 5 mM | 0.05 to 5 mM | 0.05 to 5 mM | 0.05 to 5 mM | 0.05 to 5 mM
9 | O=C(Oc1c2c(nc3cc(N4CCNCC4)c(F)cc13)-c1cccn1C2=O)c1ccco1 [Compound 343b, 7-fluoro-10-oxo-6-(piperazin-1-yl)-10H-pyrrolizino[1,2-b]quinolin-9-ylfuran-2-carboxylate] | 1 to 10 µM | 0.05 to 5 mM | – | 0.05 to 5 mM | 0.05 to 5 mM | 0.05 to 5 mM | 0.05 to 5 mM | 0.05 to 5 mM | 0.05 to 5 mM | – | – | – | – | – | –
10 | O=C1c2c(n(C(=O)c3ccco3)c3ccc(F)cc3c2=O)-c2cccn21 [Compound 150a, 7-Fluoro-4-(furan-2-carbonyl)-9H-pyrrolizino[1,2-b]quinoline-9,10(4H)-dione] | 1 to 10 µM | 0.05 to 5 mM | – | < 0.05 mM | 0.05 to 5 mM | 0.05 to 5 mM | 0.05 to 5 mM | 0.05 to 5 mM | 0.05 to 5 mM | – | – | – | – | – | –
11 | O=C1c2c(n(Cc3ccccc3F)c3c(Cl)cccc3c2=O)-c2cccn21 [Compound 460a, 5-Chloro-4-(2-fluorobenzyl)-9H-pyrrolizino[1,2-b]quinoline-9,10(4H)-dione] | 0.1 to 1 µM | 0.05 to 5 mM | – | 0.05 to 5 mM | < 0.05 mM | 0.05 to 5 mM | 0.05 to 5 mM | 0.05 to 5 mM | < 0.05 mM | – | – | – | – | – | –
12 | O=C1c2c(n(-c3ccc(F)cc3)c3ccc(C(F)(F)F)cc3c2=O)-c2cccn21 [Compound 259a, 4-(4-Fluorophenyl)-7-(trifluoromethyl)-9H-pyrrolizino[1,2-b]quinoline-9,10(4H)-dione] | 1 to 10 µM | 0.05 to 5 mM | – | 0.05 to 5 mM | 0.05 to 5 mM | 0.05 to 5 mM | 5 to 20 mM | 0.05 to 5 mM | 0.05 to 5 mM | – | – | – | – | – | –

Continued, in another order:

Row | IC50 [3] | IC50 [7, 14] | IC50 ([7]; HT-1080 cells, 48 h, CCK-8) | Structure (SMILES) | IC50 [1, 8] | IC50 (BHK-21 cells; [9]) | IC50 [2, 10] | IC50 [4, 11] | IC50 [5, 12] | IC50 [6, 13] | IC50 [1, 15] | IC50 (BHK-21 cells; 48 h, CCK-8) | IC50 ([2]; LX-2, 48 h, LX-2 cells, CCK-8) | IC50 [4, 16] | IC50 ([5]; RAT-iCell-C002 cells, CCK-8) | IC50 ([6]; HFL1 cells, 48 h, CCK-8)
13 | 1 to 10 µM | 0.05 to 5 mM | – | O=C1c2c(nc3cccc(Cl)c3c2OCc2ccccc2F)-c2cccn21 [Compound 480b, 8-chloro-9-((2-fluorobenzyl)oxy)-10H-pyrrolizino[1,2-b]quinolin-10-one] | 0.05 to 5 mM | 0.05 to 5 mM | 0.05 to 5 mM | 0.05 to 5 mM | 0.05 to 5 mM | 0.05 to 5 mM | – | – | – | – | – | –
14 | 1 to 10 µM | 0.05 to 5 mM | – | O=C1c2c(nc3cc(F)ccc3c2OCc2cccc(Cl)c2)-c2cccn21 [Compound 497b, 9-((3-chlorobenzyl)oxy)-6-fluoro-10H-pyrrolizino[1,2-b]quinolin-10-one] | 0.05 to 5 mM | 0.05 to 5 mM | 0.05 to 5 mM | 0.05 to 5 mM | 0.05 to 5 mM | 0.05 to 5 mM | – | – | – | – | – | –
15 | 1 to 10 µM | 0.05 to 5 mM | – | N#Cc1cccc2c(OCc3cccc(F)c3)c3c(nc12)-c1cccn1C3=O [Compound 454b, 9-((3-fluorobenzyl)oxy)-10-oxo-10H-pyrrolizino[1,2-b]quinoline-5-carbonitrile] | 0.05 to 5 mM | 0.05 to 5 mM | 0.05 to 5 mM | 0.05 to 5 mM | 0.05 to 5 mM | 0.05 to 5 mM | – | – | – | – | – | –
16 | 1 to 10 µM | 0.05 to 5 mM | – | O=C1c2c(nc3cc(F)ccc3c2OCc2ccc(F)cc2)-c2cccn21 [Compound 490b, 6-fluoro-9-((4-fluorobenzyl)oxy)-10H-pyrrolizino[1,2-b]quinolin-10-one] | 0.05 to 5 mM | 0.05 to 5 mM | 0.05 to 5 mM | 0.05 to 5 mM | 0.05 to 5 mM | 0.05 to 5 mM | – | – | – | – | – | –
17 | 1 to 10 µM | – | 0.05 to 5 mM | CCOCCCOc1c2c(nc3ccccc13)C(=O)n1cccc1-2 [Compound 791b, 11-(3-ethoxypropoxy)-5H-pyrrolizino[2,1-b]quinolin-5-one] | – | – | – | – | – | – | 0.05 to 5 mM | 0.05 to 5 mM | 0.05 to 5 mM | 0.05 to 5 mM | 0.05 to 5 mM | 0.05 to 5 mM
18 | 1 to 10 µM | – | 0.05 to 5 mM | N#Cc1ccccc1-c1ccc(COc2c3c(nc4ccccc24)C(=O)n2cccc2-3)cc1 [Compound 795b, 4′-(((5-oxo-5H-pyrrolizino[2,1-b]quinolin-11-yl)oxy)methyl)-[1,1′-biphenyl]-2-carbonitrile] | – | – | – | – | – | – | 0.05 to 5 mM | 0.05 to 5 mM | 0.05 to 5 mM | 0.05 to 5 mM | 0.05 to 5 mM | 0.05 to 5 mM
